One may read the EC50 as the concentration needed to bring the measured effect to its halfway point. Lower therefore signals an effect from little substance.

The results in this text go back to article PMC6851183, “Computational design and characterization of nanobody-derived peptides that stabilize the active conformation of the β2-adrenergic receptor (β2-AR)” (Scientific Reports, 2019).

In the test the target is T1, β2-AR/RLuc8 with GFP^2/β-arr2 Arg393Glu, Arg395Glu (Homo sapiens, UniProt P07550).
T1 construct: expressed in transfected cells; host or cells: HEK-293
T1 sequence (P07550 whole entry, change not shown): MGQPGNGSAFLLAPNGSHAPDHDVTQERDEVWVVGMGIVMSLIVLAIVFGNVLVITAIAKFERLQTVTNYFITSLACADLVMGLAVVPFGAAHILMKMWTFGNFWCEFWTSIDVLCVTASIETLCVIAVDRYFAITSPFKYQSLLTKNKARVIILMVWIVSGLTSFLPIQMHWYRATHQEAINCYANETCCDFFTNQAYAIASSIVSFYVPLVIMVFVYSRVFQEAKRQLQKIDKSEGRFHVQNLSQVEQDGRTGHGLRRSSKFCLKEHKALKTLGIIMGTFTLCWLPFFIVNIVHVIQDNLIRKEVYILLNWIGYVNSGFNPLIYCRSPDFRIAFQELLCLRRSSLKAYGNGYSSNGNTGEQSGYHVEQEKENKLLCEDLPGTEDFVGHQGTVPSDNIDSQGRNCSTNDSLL
The test can be described thus: BRET^2-based β-arrestin 2 recruitment assay. The format is cell-based. On the technique in general: Bioluminescence resonance energy transfer reports proximity on the nanometre scale.

Ends that are not written are not given here.

The sequence EDTAVYYCNANWDLLSD [P3] gave an EC50 of around 1 nM. In addition, where the note is “homogenized or permeabilized cells, 10 µM isoproterenol, P3 10^−12 to 10^−5 M, dose-dependent, maximum”, the “reduction in isoproterenol-induced BRET^2 signal” value is given as “up to 10%”.
